Measurements as given in US6043385A, “Vitamin D derivatives” (priority 1997, dated 2000).

Assays:
[1] = tested on: Epidermal proliferation in minipigs; experiment: The pig model: epidermal proliferation in minipigs; details: for Calcemic dose / Effective dose: seven days; for Effective dose: dose that increases the normal LI at least 50%; for TI (ratio Calc./Eff.): calcemic dose / effective dose, 10080 min
[2] = tested on: Epidermal thickening (acanthosis) in hairless mice; experiment: The mouse model: epidermal thickening (acanthosis) in hairless mice; details: for ED50: Mus musculus, po, read-out: ED50: dose causing halfmaximal epidermal thickening; for ratio (TI) HTD/ED50 / TI shift (HTD/ED50 of test compound divided by HTD/ED50 of calcitriol): hairless mice, oral; for ratio (TI) HTD/ED50: HTDpo/ED50; for TI shift (HTD/ED50 of test compound divided by HTD/ED50 of calcitriol): vs calcitriol
[3] = as above; details: mouse, in vivo, po
human VDR = molecular target: T1, human VDR (Homo sapiens, UniProt P11473); experiment: Vitamin D receptor activation (VDR), transcription activation assay in COS cells; type: cell-based; details: for EC50: COS cells cotransfected with human VDR and VDRE3-luciferase reporter, read-out: VDR act. (ED50, nanomolar); for HTD/VDR: ratio HTDsc (mouse, μg/kg) / VDR ED50 (nanomolar); for TI shift (HTD/VDR of test compound divided by HTD/VDR of calcitriol): vs calcitriol
T1 construct: expressed in transfected cells; host or cells: COS cells, human VDR in pSG5
T1 sequence (P11473 1-427): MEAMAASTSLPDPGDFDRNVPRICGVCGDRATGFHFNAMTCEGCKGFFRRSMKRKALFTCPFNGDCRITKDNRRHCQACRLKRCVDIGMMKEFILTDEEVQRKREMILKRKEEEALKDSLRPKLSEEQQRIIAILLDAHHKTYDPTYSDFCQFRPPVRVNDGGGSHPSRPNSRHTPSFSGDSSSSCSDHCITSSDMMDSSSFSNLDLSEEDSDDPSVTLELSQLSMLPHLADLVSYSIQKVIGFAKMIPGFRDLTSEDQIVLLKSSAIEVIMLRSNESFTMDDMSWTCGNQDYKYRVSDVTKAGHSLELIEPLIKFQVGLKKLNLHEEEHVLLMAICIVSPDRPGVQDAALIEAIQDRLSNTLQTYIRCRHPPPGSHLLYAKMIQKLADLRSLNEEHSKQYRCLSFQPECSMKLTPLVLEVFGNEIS
From the text: 2. Vitamin D receptor activation (VDR)
In order to measure the activation of the vitamin D receptor (VDR) by vitamin D analogs in cells a transcription activation assay was used. COS cells were cotransfected with the human VDR (expressed in pSG5) and a reporter gene containing three response elements (VDRE3) from the rat osteocalcine gene, the thymidine kinase basal promoter, and the luciferase reporter gene, respectively.
TI shift: shift in "therapeutic index", defined as the ratio HTD/VDR of
the test compound divided by the ratio HTD/VDR of calcitriol. These

[4] = Calcium liability (tolerance test in mice); details: mouse, in vivo, sc, daily s.c. for 4 consecutive days, dose without weight loss / with zero weight gain, read-out: HTD sc, mouse (highest tolerated subcutaneous dose)
From the text: 1. Calcium liability (tolerance test in mice):
This test gives a global picture of calcemic liability. Profound changes in calcium homeostasis strongly affect the weight development of the animals. This parameter was used as a primary test for tolerance. Mice (25-30 g body weight) received daily subcutaneous administrations of the vitamin D derivative for 4 consecutive days. Body weight was registered just before and at the end of a […] treatment period. The "highest tolerated dose" (HTDsc) in mice is the dose which results in zero weight gain during this treatment period.
HTDsc: highest tolerated subcutaneous dose (μg/kg) without weight loss

Structure (SMILES) | Calcemic dose [1] [µg/kg] | Effective dose [1] [µg/kg] | hyperproliferation (in words) ([1]; up to 9 times the dose that induces hypercalcemia) | ED50 [2] [µg/kg] | MTD [3] [µg/kg] | EC50 (human VDR) [nM] | HTD/VDR (human VDR) | TI shift (HTD/VDR of test compound divided by HTD/VDR of calcitriol) (human VDR) | MTD [4] [µg/kg] | TI (ratio Calc./Eff.) [1] | ratio (TI) HTD/ED50 [2] | TI shift (HTD/ED50 of test compound divided by HTD/ED50 of calcitriol) [2]
C=C1/C(=C\C=C2/CCC[C@]3(C)[C@@H]([C@H](C)CCCC(C)(C)O)CC[C@@H]23)C[C@@H](O)C[C@@H]1O [Calcitriol, reference compound] | 3 | > 22.5 | did not induce hyperproliferation even at highly toxic does (9 times the dose that induces hypercalcemia) | 500 | 1 | – | – | – | – | – | – | –
C[C@H](CNC(=O)CC(C)(O)C(F)(F)F)[C@H]1CC[C@H]2/C(=C/C=C3C[C@@H](O)C[C@H](O)C3)CCC[C@]12C (mixture of isomers) [compound B, 1:1 Mixture of (E)--(R)-- and (S)--N--[(1R,3R,20S)-1,3-dihydroxy-20-methyl-19-nor-9,10-seco-pregna-5,7-dien-21-yl]-4,4,4-trifluoro-3-hydroxy-20-methyl-butyramide] | 5 | 0.5 | – | 80 | 20 | 1.7 | 26.5 | 139 | 45 | 10 | 0.25 | 125
C[C@H](CNC(=O)C[C@@](C)(O)C(F)(F)F)[C@H]1CCC[C@H]2/C(=C/C=C3C[C@@H](O)C[C@H](O)C3)CCC[C@]12C [F, (E)--(R)--N--[(1R,3R,20S)-1,3-Dihydroxy-17a,20a-dihomo-19-nor-9,10-seco-pregna-5,7-dien-21-yl]-4,4,4-trifluoro-3-hydroxy-3-methyl-butyramide] | – | – | – | – | – | 0.6 | 8.3 | 44 | 5 | – | – | –
C[C@H](CNC(=O)C[C@](C)(O)C(F)(F)F)[C@H]1CCC[C@H]2/C(=C/C=C3C[C@@H](O)C[C@H](O)C3)CCC[C@]12C [G, (E)--(S)--N--[(1R,3R,20S)-1,3-Dihydroxy-17a,20a-dihomo-19-nor-9,10-seco-pregna-5,7-dien-21-yl]-4,4,4-trifluoro-3-hydroxy-3-methyl-butyramide] | – | – | – | – | – | 0.18 | 25 | 132 | 4.5 | – | – | –
C=C1/C(=C\C=C2/CCC[C@]3(C)[C@@H]([C@H](C)CNC(=O)CC(C)(O)C(F)(F)F)CC[C@@H]23)C[C@@H](O)C[C@@H]1O (mixture of isomers) [D, 1:1 Mixture of [(5Z,7E)--(R)-- and (S)--N--[(1S,3R,20S)-1,3-dihydroxy-20-methyl-9,10-seco-pregna-5,7,10(19)-trien-21-yl]-4,4,4-trifluoro-3-hydroxy-3-methyl-butyramide] | – | – | – | – | – | 1.6 | 6.3 | 33 | 10 | – | – | –
C[C@H](CNC(=O)C(C)(C)O)[C@H]1CC[C@H]2/C(=C/C=C3C[C@@H](O)C[C@H](O)C3)CCC[C@]12C [C, (E)--(1R,3R,20S)--N-(1,3-Dihydroxy-20-methyl-19-nor-9,10-seco-pregna-5,7-dien-21-yl)-2-hydroxy-2-methyl-propionamide] | – | – | – | – | – | 6.4 | 62.5 | 329 | 400 | – | – | –
C[C@H](CNC(=O)CC(O)(C(F)(F)F)C(F)(F)F)[C@H]1CCC[C@H]2/C(=C/C=C3C[C@@H](O)C[C@H](O)C3)CCC[C@]12C [H, (E)--N--[(1R,3R,20S)-1,3-Dihydroxy-17a,20a-dihomo-19-nor-9,10-seco-pregna-5,7-dien-21-yl]-4,4,4-trifluoro-3-trifluoromethyl-3-hydroxy-butyramide] | – | – | – | – | – | 0.5 | 4.6 | 24 | 2.3 | – | – | –
C[C@@H](CNC(=O)CC(C)(O)C(F)(F)F)[C@H]1CC[C@H]2/C(=C/C=C3C[C@@H](O)C[C@H](O)C3)CCC[C@]12C (mixture of isomers) [compound E, 1:1 Mixture of (E)--(R)-- and (S)--N--[(1R,3R,20R)-1,3-dihydroxy-20-methyl-19-nor-9,10-seco-pregna-5,7-dien-21-yl]-4,4,4-trifluoro-3-hydroxy-3-methyl-butyramide] | – | – | – | – | – | 0.35 | 2.9 | 15 | 1 | – | – | –
C[C@H](CNC(=O)CC(O)(C(F)(F)F)C(F)(F)F)[C@H]1CC[C@H]2/C(=C/C=C3C[C@@H](O)C[C@H](O)C3)CCC[C@]12C [A, (E)--(1R,3R,20S)--N-(1,3-Dihydroxy-20-methyl-19-nor-9,10-seco-pregna-5,7-dien-21-yl)-4,4,4-trifluoro-3-hydroxy-3-trifluoromethyl-butyramide] | – | – | – | – | – | 0.47 | 6.4 | 34 | 3 | – | – | –
C[C@H](CNC(=O)C[C@@](C)(O)C(F)(F)F)[C@H]1CC[C@H]2/C(=C/C=C3C[C@@H](O)C[C@H](O)C3)CCC[C@]12C [compound J, E--(R)--N--[(1R,3R,20S)-1,3-Dihydroxy-20-methyl-19-nor-9,10-seco-pregna-5,7-dien-21-yl]-4,4,4-trifluoro-3-hydroxy-3-methyl-butyramide] | 5 | 0.17 | – | 50 | 8 | 2.1 | 10.5 | 55 | 22 | 29 | 0.16 | 80
C=C1/C(=C/C=C2\CCC[C@]3(C)[C@@H]([C@H](C)CNC(=O)CC(C)(O)C(F)(F)F)CC[C@@H]23)C[C@@H](O)C[C@@H]1O (mixture of isomers) [I, 1:1 Mixture of --[(5E,7E)--(R)-- and --(S)-4,4,4-trifluoro-3-hydroxy-N--[(1S,3R,20S)-1,3-dihydroxy-20-methyl-9,10-seco-pregna-5,7,10(19)-trien-21-yl]-3-methyl-butyramide] | – | – | – | – | – | 40 | 3.3 | 17 | 130 | – | – | –
